Measurements: US5523314A, “Compounds useful as hypoglycemic agents and for treating Alzheimer's disease” (priority 1994, dated 1996)
Where a name gives a salt, the structure may show the parent alone. Read-outs that look alike come from different tables or passages of the source.

How the values were obtained:
[1] = tested on: blood glucose level; test: Hypoglycemic activity in obese diabetic mice (Table 1); assay type: in vivo, male viable yellow obese-diabetic mice; conditions: for response vs control in vivo at 50 mg/kg / response vs control in vivo at 100 mg/kg: Mus musculus, ip; for ability to lower blood glucose levels in mammals: compared to structurally similar compounds known in the art, in words
Protocol: The hypoglycemic activity of the compounds of the present invention was determined by testing the efficacy of the compounds in vivo in male viable yellow obese-diabetic mice. The test procedure is described in detail below.
Test formulations were prepared by dissolving the test compound in a saline solution containing 2% Emulphor (a polyoxyethylated vegetable oil surfactant from GAP Corp.) to provide the dose level desired. Each test formulation was administered to six viable yellow obese-diabetic mice intraperitoneally at the beginning of the experiment. Blood glucose levels were determined immediately before the first dose and at 2 and 4 hours thereafter using glucose oxidase. A mean was taken of the 6 values obtained before the first dose and at the 2 and 4 hour intervals. In Table 1, Column 1 provides the example number of the test compound, Column 2 provides the dose level of compound tested, and Columns 3 and 4 provide a measurement of the test animal's blood glucose level 2 and 4 hours after test compound administration, respectively, as a percentage of the test animal' s pre-administration blood glucose level.

[2] = target: T1, Human liver cathepsin D (Homo sapiens, UniProt P07339); test: Cathepsin D inhibition, fluorometric assay (Tables 5 and 6); assay type: biochemical; conditions: for inhibition at 8.3 µg/mL (stock): Compound Stock Concentration 8.3 μg/ml
T1 construct: purchased Athens Research and Technology, Athens, Ga; host or cells: human liver
T1 sequence (P07339 169-412 limits assumed): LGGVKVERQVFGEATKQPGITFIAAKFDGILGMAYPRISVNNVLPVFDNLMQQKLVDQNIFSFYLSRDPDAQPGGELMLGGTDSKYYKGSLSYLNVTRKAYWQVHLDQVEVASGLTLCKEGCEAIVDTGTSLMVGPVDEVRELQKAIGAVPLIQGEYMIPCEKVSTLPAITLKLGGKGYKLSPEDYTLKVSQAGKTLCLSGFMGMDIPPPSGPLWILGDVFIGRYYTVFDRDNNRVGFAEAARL
T1 sequence (P07339 65-161 limits assumed): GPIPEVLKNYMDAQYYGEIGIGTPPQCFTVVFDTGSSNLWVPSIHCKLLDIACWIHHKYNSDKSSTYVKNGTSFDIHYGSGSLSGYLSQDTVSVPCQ
Protocol: Human liver cathepsin D (Athens Research and Technology, Athens, Ga.) was diluted in assay buffer, 200 mM NaOAc, pH 4.5, 150 mM NaCl to 500 ng/mL and then 100 μL of this cathepsin D solution was added to each well of a 96 well plate with the exception of control wells which received just 100 μL of assay buffer. […] Blank and enzyme control wells each received 5 μL of the DMSO vehicle.
After incubation at 37° C. for 30 minutes, cathepsin D activity was terminated by the addition of 100 μL per well of 400 mU/mL microsomal leucine aminopeptidase (EC 3.4.11.2, Sigma, St. Louis, Mo.) in 1M Tris-HCl, pH 8.0.
Following a two hour incubation at 37° C., to allow the aminopeptidase to release the fluorophore, 7-amido-4-methylcoumarin (AMC) from the products of cathepsin D cleavage, the plates were again analyzed in the fluorometer. In order to check for potential false positives, i.e., inhibitors of microsomal leucine aminopeptidase, residual aminopeptidase activity was monitored directly in each well by the addition of 20 μL/well of 2.5 mM Leu-pNA (Bachem Biosciences, Philadelphia, Pa.) in 10% DMSO.

[3] = 2 h, 50 mg/kg, intraperitoneal, 2 hrs, read-out: Percent of Initial Blood Glucose Level After 2 hrs.
[4] = 4 h, 50 mg/kg, intraperitoneal, 4 hrs, read-out: Percent of Initial Blood Glucose Level After 4 hrs.
[5] = 50 mg/kg, intraperitoneal, 2 hrs
[6] = 50 mg/kg, intraperitoneal, 4 hrs

| SMILES | response vs control in vivo at 50 mg/kg [1, 3] [%] | response vs control in vivo at 50 mg/kg [1, 4] [%] | further results |
| --- | --- | --- | --- |
| C=CCN1C(=O)C(=Cc2ccc(O)c(OC)c2)SC1=S [Example 30, 5-[(3-methoxy-4-hydroxyphenyl)methylene]-3-(2-propenyl)-2-thioxo-4-thiazolidinone] | 78 ± 7 | 81 ± 5 |  |
| CN1C(=O)C(=Cc2cc(C(C)(C)C)c(O)c(C(C)(C)C)c2)SC1=S [Example 85, 5-[[3,5-bis(1,1-dimethylethyl)-4-hydroxyphenyl]methylene]-2-thioxo-3-methyl-4-thiazolidinone] |  |  | IC50 [2]: 14.3 µM |
| O=C1NC(=S)SC1=Cc1ccc2c(c1)OCO2 [Example 2, 5-[(1,3-benzodioxol-5-yl)methylene]-2-thioxo-4-thiazolidinone] | 96 ± 1 | 82 ± 3 |  |
| O=C1NC(=S)SC1=Cc1ccccc1O [Example 7, 5-[(2-hydroxyphenyl)methylene]-2-thioxo-4-thiazolidinone] | 80 ± 4 | 91 ± 7 |  |
| CCC(C)c1cc(C=C2SC(=S)N(CC(=O)O)C2=O)cc(C(C)CC)c1O (centres unmarked) [Example 59, 5-[[3,5-bis(1-methylpropyl)-4-hydroxyphenyl]methylene]-4-oxo-2-thioxo-3-thiazolidine acetic acid] | 62 ± 5 | 59 ± 9 | ability to lower blood glucose levels in mammals [1]: surprising ability to lower blood glucose levels in mammals |
| CCCOc1ccc(C=C2SC(=S)NC2=O)cc1OCCC [Example 51, 5-[(3,4-dipropoxyphenyl)methylene]-2-thioxo-4-thiazolidinone] | 89 ± 7 | 85 ± 8 |  |
| CCOc1cc(C=C2SC(=S)N(C)C2=O)cc(CSc2ccccc2)c1O [Example 73] |  |  | IC50 ([2]; 50% inhibition of cathepsin D): 9.9 µM; inhibition at 4.15 µg/mL (stock) ([2]; Compound Stock Concentration 4.15 μg/ml): 69%; inhibition at 8.3 µg/mL (stock) [2]: 76% |
| O=C1NC(=S)SC1=Cc1ccc([N+](=O)[O-])c(O)c1 [Example 43, 5-[(3-hydroxy-4-nitrophenyl)methylene]-2-thioxo-4-thiazolidinone] | 92 ± 7 | 88 ± 4 |  |
| Cc1cccc(C=C2SC(=S)NC2=O)c1 [Example 33, 5-[(3-methylphenyl)methylene]-2-thioxo-4-thiazolidinone] | 91 ± 6 | 86 ± 7 |  |
| CS(=O)(=O)Nc1cccc(C=C2SC(=S)N(CC(=O)O)C2=O)c1 [Example 86, 5-[(3-methanesulfonamidophenyl)methylene]-4-oxo-2-thioxo-3-thiazolidine acetic acid] |  |  | inhibition at 8.3 µg/mL (stock) [2]: 42% |
| CC(=C1SC(=S)NC1=O)c1cccc(O)c1 [Example 44, 5-[(3-hydroxyphenyl)methylmethylene]-2-thioxo-4-thiazolidinone] |  |  | Percent of Initial Blood Glucose Level After 2 hrs. [1, 5]: 98 ± 4%; Percent of Initial Blood Glucose Level After 4 hrs. [1, 6]: 88 ± 5% |
| CCOc1ccc(C=C2SC(=S)NC2=O)cc1O [Example 46, 5-[(3-hydroxy-4-ethoxyphenyl)methylene]-2-thioxo-4-thiazolidinone] | 79 ± 4 | 77 ± 5 |  |
| O=C1NC(=S)SC1=Cc1cccc(Cl)c1 [Example 23, 5-[(3-chlorophenyl)methylene]-2-thioxo-4-thiazolidinone] | 74 ± 6 | 90 ± 6 |  |
| O=C1NC(=S)SC1=Cc1ccc(C(=O)O)cc1 [Example 37, 4-[(2-thioxo-4-thiazolidinone)methylene]benzoic acid] | 89 ± 4 | 80 ± 4 |  |
| CCCCOc1ccc(C=C2SC(=S)NC2=O)cc1 [5-[(4-butoxyphenyl)methylene]-2-thioxo-4-thiazolidinone] |  |  | ability to lower blood glucose levels in mammals [1]: surprising ability to lower blood glucose levels in mammals |
| COc1cc(C(C)=C2SC(=S)NC2=O)cc(OC)c1OC [Example 19, 5-[(3,4,5-trimethoxyphenyl)methylmethylene]-2-thioxo-4-thiazolidinone] |  |  | Percent of Initial Blood Glucose Level After 2 hrs. [1, 5]: 85 ± 14%; Percent of Initial Blood Glucose Level After 4 hrs. [1, 6]: 75 ± 4% |

| SMILES | response vs control in vivo at 50 mg/kg [1, 3] [%] | response vs control in vivo at 50 mg/kg [1, 4] [%] | further results |
| --- | --- | --- | --- |
| O=C1NC(=S)SC1=Cc1ccccc1[N+](=O)[O-] [Example 9, 5-[(2-nitrophenyl)methylene]-2-thioxo-4-thiazolidinone] | 91 ± 8 | 83 ± 6 |  |
| O=C1NC(=S)SC1=Cc1ccnc2ccccc12 [Example 3, 5-[(4-quinolinyl)methylene]-2-thioxo-4-thiazolidinone] | 90 ± 10 | 73 ± 3 |  |
| O=C1NC(=S)SC1=Cc1ccc(F)cc1 [Example 13, 5-[(4-fluorophenyl)methylene]-2-thioxo-4-thiazolidinone] | 94 ± 4 | 88 ± 5 |  |
| CC(C)(C)c1cc(C=C2SC(=S)N(CC(=O)O)C2=O)cc(C(C)(C)C)c1O [Example 53, 5-[[3,5-bis(1,1-dimethylethyl)-4-hydroxyphenyl]methylene]-4-oxo-2-thioxo-3-thiazolidine acetic acid] | 73 ± 4 | 55 ± 5 | response vs control in vivo at 100 mg/kg ([1]; 2 h, intraperitoneal, 2 hrs, read-out: Percent of Initial Blood Glucose Level After 2 hrs.): 83 ± 9%; response vs control in vivo at 100 mg/kg ([1]; 4 h, intraperitoneal, 4 hrs, read-out: Percent of Initial Blood Glucose Level After 4 hrs.): 80 ± 14%; ability to lower blood glucose levels in mammals [1]: surprising ability to lower blood glucose levels in mammals |
| O=C1NC(=S)SC1=Cc1ccccc1-c1ccccc1 [Example 29, 5-[[(1,1'-biphenyl)-2-yl]methylene]-2-thioxo-4-thiazolidinone] | 84 ± 5 | 77 ± 6 |  |
| COc1ccc(C=C2SC(=S)NC2=O)cc1C [Example 27, 5-[(3-methyl-4-methoxyphenyl)methylene]-2-thioxo-4-thiazolidinone] | 93 ± 3 | 84 ± 6 |  |
| CCCCOc1ccc(CC2SC(=S)NC2=O)cc1OC (centres unmarked) [Example 54, 5-[(3-methoxy-4-butoxyphenyl)methyl]-2-thioxo-4-thiazolidinone] | 76 ± 7 | 74 ± 6 |  |
| O=C1NC(=S)SC1=Cc1cccc(O)c1 [Example 11, 5-[(3-hydroxyphenyl)methylene]-2-thioxo-4-thiazolidinone] | 84 ± 3 | 85 ± 6 |  |
| O=C1NC(=S)SC1=Cc1cccs1 [Example 14, 5-[(2-thienyl)methylene]-2-thioxo-4-thiazolidinone] | 84 ± 7 | 71 ± 8 |  |
| COc1cc(C=C2SC(=S)NC2=O)ccc1O [Example 20, 5-[(3-methoxy-4-hydroxyphenyl)methylene]-2-thioxo-4-thiazolidinone] | 76 ± 3 | 70 ± 5 |  |
| COc1ccc(C=C2SC(=S)NC2=O)cc1O [Example 40, 5-[(3-hydroxy-4-methoxyphenyl)methylene]-2-thioxo-4-thiazolidinone] | 78 ± 5 | 72 ± 4 |  |
| O=C1NC(=S)SC1=Cc1ccc(Cl)c(Cl)c1 [Example 36, 5-[(3,4-dichlorophenyl)methylene]-2-thioxo-4-thiazolidinone] | 81 ± 7 | 90 ± 8 |  |
| O=C1NC(=S)SC1=Cc1cccc([N+](=O)[O-])c1 [Example 10, 5-[(3-nitrophenyl)methylene]-2-thioxo-4-thiazolidinone] | 89 ± 4 | 80 ± 4 |  |
| COc1ccc(C=C2SC(=S)NC2=O)c(OC)c1 [Example 12, 5-[(2,4-dimethoxyphenyl)methylene]-2-thioxo-4-thiazolidinone] | 90 ± 7 | 69 ± 6 |  |
| O=C1NC(=S)SC1=Cc1c[nH]c2ccccc12 [Example 39, 5-[(1H-indol-3-yl)methylene]-2-thioxo-4-thiazolidinone] | 83 ± 4 | 76 ± 4 |  |
| CCCCOc1ccc(C=C2SC(=S)NC2=O)cc1OC [Example 52, 5-[(3-methoxy-4-butoxyphenyl)methylene]-2-thioxo-4-thiazolidinone, sodium salt] |  |  | response vs control in vivo at 50 mg/kg ([1]; 4 h, read-out: Percent of Initial Blood Glucose Level After 4 hrs., 50 mg/kg, intraperitoneal, 4 hrs): 61 ± 4% |
